According to US5565440A, “Methane diphosphonic acid derivative, its production process and its pharmaceutical applications” (Toray Industries, Inc., priority 1992, dated 1996):

Tested on: adjuvant arthritis
Assay: Adjuvant Arthritis Test
Type: in vivo, Lewis female rats
Settings: 8th to 21st day; for Swelling inhibition rate with respect to control group, 14th day, Left / Swelling inhibition rate with respect to control group, 21st day, Left: left hind limb (adjuvant-injected); for Swelling inhibition rate with respect to control group, 14th day, Right / Swelling inhibition rate with respect to control group, 21st day, Right: right hind limb; for Bone destruction inhibition rate with respect to control group: soft X-ray score, 22nd day

Q: What does the source list for `O=P(O)(O)C(O)(CC1CCSc2ccc(Cl)cc21)P(=O)(O)O` (centres unmarked) [Example 4, Monosodium 2-[4-(6-chlorothiochromanyl)]-1-hydroxyethane-1,1-diphosphonate]?
A: Swelling inhibition rate with respect to control group, 14th day, Left (3 mg/kg s.c. daily): 55.5%; Swelling inhibition rate with respect to control group, 21st day, Left (3 mg/kg s.c. daily): 93.0%; Swelling inhibition rate with respect to control group, 14th day, Right (3 mg/kg s.c. daily): 32.4%; Swelling inhibition rate with respect to control group, 21st day, Right (3 mg/kg s.c. daily): 37.7%; Bone destruction inhibition rate with respect to control group (3 mg/kg s.c. daily): 52.7%

Q: `CSc1cccc2c1SCCC2CC(O)(P(=O)(O)O)P(=O)(O)O` (centres unmarked) [Example 14, Disodium 2-[4-(8-methylthiothiochromanyl)]-1-hydroxyethane-1,1-diphosphonate] was tested. Which “Swelling inhibition rate with respect to control group, 14th day, Left” value (from here on “Swelling inhibition rate … 14th day, Left”) (3 mg/kg s.c. daily) did it give?
A: 53.9%

Q: What about the “Swelling inhibition rate with respect to control group, 21st day, Left” value (from here on “Swelling inhibition rate … 21st day, Left”) (3 mg/kg s.c. daily) of the same compound?
A: 80.0%

Q: And the “Swelling inhibition rate with respect to control group, 14th day, Right” value (from here on “Swelling inhibition rate … 14th day, Right”) (3 mg/kg s.c. daily)?
A: 2.9%

Q: And the “Swelling inhibition rate with respect to control group, 21st day, Right” value (shortened to “Swelling inhibition rate … 21st day, Right”) (3 mg/kg s.c. daily)?
A: 31.0%

Q: What about the “Bone destruction inhibition rate with respect to control group” value (“Bone destruction inhibition rate” below) (3 mg/kg s.c. daily) of the same compound?
A: 46.9%

Q: For `CC1(C)CC(CC(O)(P(=O)(O)O)P(=O)(O)O)c2ccccc2S1` (centres unmarked) [Example 2, Monosodium 2-[4-(2,2-dimethylthiochromanyl)]-1-hydroxyethane-1,1-diphosphonate], which “Swelling inhibition rate … 14th day, Left” value (20 mg/kg s.c. daily) is on record?
A: 59.6%

Q: What about the “Swelling inhibition rate … 21st day, Left” value (20 mg/kg s.c. daily) of the same compound?
A: 75.3%

Q: And the “Swelling inhibition rate … 14th day, Right” value (20 mg/kg s.c. daily)?
A: 8.0%

Q: What about the “Swelling inhibition rate … 21st day, Right” value (20 mg/kg s.c. daily) of the same compound?
A: 16.5%

Q: And the “Bone destruction inhibition rate” value (20 mg/kg s.c. daily)?
A: 80.4%

Q: `O=P(O)(O)C(O)(CC1CCSc2ccccc21)P(=O)(O)O` (centres unmarked) [Example 6, Monosodium 2-(4-thiochromanyl)-1-hydroxyethane-1,1-diphosphonate] was tested. Which “Swelling inhibition rate … 14th day, Left” value (3 mg/kg s.c. daily) did it give?
A: 26.1%

Q: What about the “Swelling inhibition rate … 21st day, Left” value (3 mg/kg s.c. daily) of the same compound?
A: 62.0%

Q: And the “Swelling inhibition rate … 14th day, Right” value (3 mg/kg s.c. daily)?
A: 27.2%

Q: And the “Swelling inhibition rate … 21st day, Right” value (3 mg/kg s.c. daily)?
A: 35.9%

Q: What about the “Bone destruction inhibition rate” value (3 mg/kg s.c. daily) of the same compound?
A: 38.5%

Q: For `O=P(O)(O)C(O)(CC1CCSc2c(Cl)cccc21)P(=O)(O)O` (centres unmarked) [Example 8], which “Swelling inhibition rate … 14th day, Left” value (3 mg/kg s.c. daily) is on record?
A: 52.6%

Q: And the “Swelling inhibition rate … 21st day, Left” value (3 mg/kg s.c. daily)?
A: 84.1%

Q: What about the “Swelling inhibition rate … 14th day, Right” value (3 mg/kg s.c. daily) of the same compound?
A: 0.1%

Q: What about the “Swelling inhibition rate … 21st day, Right” value (3 mg/kg s.c. daily) of the same compound?
A: 37.5%

Q: And the “Bone destruction inhibition rate” value (3 mg/kg s.c. daily)?
A: 52.3%

Q: `CCc1cccc2c1SCCC2CC(O)(P(=O)(O)O)P(=O)(O)O` (centres unmarked) [Example 10, Disodium 2-[4-(8-ethylthiochromanyl)]-1-hydroxyethane-1,1-diphosphonate] was tested. Which “Swelling inhibition rate … 14th day, Left” value (3 mg/kg s.c. daily) did it give?
A: 38.1%

Q: What about the “Swelling inhibition rate … 21st day, Left” value (3 mg/kg s.c. daily) of the same compound?
A: 62.5%

Q: What about the “Swelling inhibition rate … 14th day, Right” value (3 mg/kg s.c. daily) of the same compound?
A: 19.5%

Q: What about the “Swelling inhibition rate … 21st day, Right” value (3 mg/kg s.c. daily) of the same compound?
A: 33.9%

Q: What about the “Bone destruction inhibition rate” value (3 mg/kg s.c. daily) of the same compound?
A: 23.9%

Q: `COc1cccc2c1SCCC2CC(O)(P(=O)(O)O)P(=O)(O)O` (centres unmarked) [Example 12] was tested. Which “Swelling inhibition rate … 14th day, Left” value (3 mg/kg s.c. daily) did it give?
A: 35.4%

Q: And the “Swelling inhibition rate … 21st day, Left” value (3 mg/kg s.c. daily)?
A: 60.1%

Q: What about the “Swelling inhibition rate … 14th day, Right” value (3 mg/kg s.c. daily) of the same compound?
A: 0.2%

Q: And the “Swelling inhibition rate … 21st day, Right” value (3 mg/kg s.c. daily)?
A: 24.2%

Q: What about the “Bone destruction inhibition rate” value (3 mg/kg s.c. daily) of the same compound?
A: 26.2%
